Source: PubChem BioAssay AID330 (DTP/NCI, 2004)
“And” between values parts separate entries of the source, which are not always exact repeats. Identical values can stand only once. Inconclusive results and toxic doses are left out.

Test system: P388 leukemia ip, CD2F1 mice, survival T/C
Assay: NCI In Vivo Anticancer Drug Screen. Data for tumor model P388 Leukemia (intraperitoneal) in CD2F1 (CDF1) mice
Settings: endpoint: median survival time, higher = longer survival
Outline: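 Mice carrying the transplanted tumor received test compound or vehicle. Survival was recorded in each group, and the value is the treated-group measurement divided by that of the vehicle-treated control group.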

[1] = dose: 50.0 mg/kg/injection, schedule: Q01DX009 (ip), vehicle: saline
[2] = dose: 12.5 mg/kg/injection, schedule: Q01DX005 (ip), vehicle: saline
[3] = dose: 25.0 mg/kg/injection, schedule: Q01DX005 (ip), vehicle: saline
[4] = dose: 50.0 mg/kg/injection, schedule: Q01DX005 (ip), vehicle: saline
[5] = dose: 50.0 mg/kg/injection, schedule: Q01DX009 (ip), vehicle: Klucel (hydroxypropylcellulose) (HPC)
[6] = dose: 100.0 mg/kg/injection, schedule: Q01DX009 (ip), vehicle: Klucel (hydroxypropylcellulose) (HPC)
[7] = dose: 200.0 mg/kg/injection, schedule: Q01DX009 (ip), vehicle: Klucel (hydroxypropylcellulose) (HPC)

O=C1C(Cl)=C(Cl)C(=O)c2ccccc21
T/C (dose: 5.0 mg/kg/injection, schedule: Q01DX009 (ip), vehicle: saline with Tween-80): 109 % of control | T/C (dose: 5.0 mg/kg/injection, schedule: Q04DX003 (ip), vehicle: saline with Tween-80): 100 % of control | T/C (dose: 10.0 mg/kg/injection, schedule: Q01DX009 (ip), vehicle: saline with Tween-80): 109 % of control | T/C (dose: 10.0 mg/kg/injection, schedule: Q04DX003 (ip), vehicle: saline with Tween-80): 100 % of control | T/C (dose: 20.0 mg/kg/injection, schedule: Q01DX009 (ip), vehicle: saline with Tween-80): 109 % of control | T/C (dose: 20.0 mg/kg/injection, schedule: Q04DX003 (ip), vehicle: saline with Tween-80): 95 % of control

CO[n+]1ccccc1Cc1ccccc1
T/C (dose: 6.25 mg/kg/injection, schedule: Q01DX009 (ip), vehicle: saline): 118 % of control | T/C (dose: 12.5 mg/kg/injection, schedule: Q01DX009 (ip), vehicle: saline): 112 % of control and 119 % of control | T/C (dose: 25.0 mg/kg/injection, schedule: Q01DX009 (ip), vehicle: saline): 111 % of control | T/C [1]: 119 % of control

CCCN(CCNc1cc(OC)cc2cccnc12)C(C)C
T/C [2]: 107 % of control | T/C [3]: 107 % of control | T/C [4]: 106 % of control and 88 % of control

CC(NC(=O)C(N)Cc1ccc(O)cc1)C(=O)NCC(=O)N(C)C(Cc1ccccc1)C(=O)NC(CO)CCS(C)=O (stereo not drawn)
T/C [1]: 115 % of control | T/C (dose: 100.0 mg/kg/injection, schedule: Q01DX009 (ip), vehicle: saline): 95 % of control | T/C (dose: 200.0 mg/kg/injection, schedule: Q01DX009 (ip), vehicle: saline): 105 % of control

CC(=O)NCCc1nc(-c2nc(C(=O)NCCCCN)cs2)cs1
T/C (dose: 12.5 mg/kg/injection, schedule: Q01DX009 (ip), vehicle: water): 100 % of control | T/C (dose: 25.0 mg/kg/injection, schedule: Q01DX009 (ip), vehicle: water): 98 % of control and 109 % of control | T/C (dose: 50.0 mg/kg/injection, schedule: Q01DX009 (ip), vehicle: water): 100 % of control and 113 % of control | T/C (dose: 100.0 mg/kg/injection, schedule: Q01DX009 (ip), vehicle: water): 103 % of control and 119 % of control | T/C (dose: 200.0 mg/kg/injection, schedule: Q01DX009 (ip), vehicle: water): 107 % of control | T/C (dose: 400.0 mg/kg/injection, schedule: Q01DX009 (ip), vehicle: water): 104 % of control

COc1ccc2c(c1OC)CN(C)[C@]13ON(c4ccccc4)[C@H](C[C@]21C)c1cc2c(cc13)OCO2
T/C (dose: 100.0 mg/kg/injection, schedule: Q04DX002 (ip), vehicle: saline with Tween-80): 98 % of control | T/C (dose: 200.0 mg/kg/injection, schedule: Q04DX002 (ip), vehicle: saline with Tween-80): 88 % of control | T/C (dose: 400.0 mg/kg/injection, schedule: Q04DX002 (ip), vehicle: saline with Tween-80): 95 % of control

ClC1=C(Cl)C(=C2CCCC2)C(Cl)=C1Cl
T/C [5]: 100 % of control | T/C [6]: 100 % of control | T/C [7]: 87 % of control

c1ccc(Cn2nnnc2Nc2ccccc2)cc1
T/C (dose: 25.0 mg/kg/injection, schedule: Q01DX005 (ip), vehicle: Klucel (hydroxypropylcellulose) (HPC)): 94 % of control | T/C (dose: 50.0 mg/kg/injection, schedule: Q01DX005 (ip), vehicle: Klucel (hydroxypropylcellulose) (HPC)): 88 % of control and 97 % of control | T/C (dose: 100.0 mg/kg/injection, schedule: Q01DX005 (ip), vehicle: Klucel (hydroxypropylcellulose) (HPC)): 94 % of control | T/C (dose: 200.0 mg/kg/injection, schedule: Q01DX005 (ip), vehicle: Klucel (hydroxypropylcellulose) (HPC)): 90 % of control

C=Cc1cc(C)ccc1C(=O)OCCCCCCCCCCCC
T/C [5]: 98 % of control | T/C [6]: 101 % of control | T/C [7]: 98 % of control

CCCNCCC(O)c1cc(C(F)(F)F)nc2c(C(F)(F)F)cccc12 (stereo not drawn)
T/C (dose: 25.0 mg/kg/injection, schedule: Q01DX009 (ip), vehicle: saline with Tween-80): 102 % of control | T/C (dose: 50.0 mg/kg/injection, schedule: Q01DX009 (ip), vehicle: saline with Tween-80): 110 % of control | T/C (dose: 100.0 mg/kg/injection, schedule: Q01DX009 (ip), vehicle: saline with Tween-80): 109 % of control

CC(=O)Oc1ccc(CO)cc1OC(C)=O
T/C [4]: 101 % of control and 102 % of control | T/C (dose: 100.0 mg/kg/injection, schedule: Q01DX005 (ip), vehicle: saline): 106 % of control and 108 % of control

CS(=O)(=O)CS(=O)(=O)OCCF
T/C [2]: 188 % of control | T/C [3]: 258 % of control and 285 % of control | T/C [4]: 285 % of control
